Consider 28 molecules from patent US20180251431A1 (VERTEX PHARMACEUTICALS INCORPORATED, priority 2016, published 2018).

Where only a bound is given, the exact number is not on record here.

The test system of the assay is HEK293 cells. The assay is described as follows: HEK293 VLCFA-LPC IC50 determination (13C-labeled C26:0 LPC by UHPLC/MS). Type of assay: cell-based, human. The following applies: Homo sapiens, HEK293, 48 h, average of one or more replicates; 13C-labeled C26:0 LPC, 48 hours; read-out: Average HEK293 IC50. The gist of the method:
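Suspension HEK293 cells (final 0.5 million/mL after mixing with equal volume) incubated 48 hours with compound plus 13C-acetate (1.0 mg/mL in added media), shaking at 37° C. Lipids extracted with hexane/isopropanol or methanol, C13:0 LPC standard. UHPLC/MS of 13C-labeled C26:0 LPC (638.500/104.100 m/z); IC50 by four-parameter fit.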

Usually IC50 stands for the concentration that gives 50% inhibition. Turning to `Cc1ncnc(C)c1-n1ccc(NC(=O)C2(c3ccccc3F)CC2)n1` [Compound 339, N-[1-(4,6-dimethylpyrimidin-5-yl)pyrazol-3-yl]-1-(2-fluorophenyl)cyclopropanecarboxamide], the IC50 is greater than 5000 nM.

As to `COc1nccc(-n2ccc(NC(=O)C3(c4ccccc4F)CC3)n2)c1C` [Compound 340, 1-(2-fluorophenyl)-N-[1-(2-methoxy-3-methyl-4-pyridyl)pyrazol-3-yl]cyclopropanecarboxamide], the IC50 is greater than 5000 nM.

Consider `Cc1ncncc1-n1ccc(NC(=O)C2(c3ccccc3F)CC2)n1` [Compound 341, 1-(2-fluorophenyl)-N-[1-(4-methylpyrimidin-5-yl)pyrazol-3-yl]cyclopropanecarboxamide], for which the IC50 came to 700 nM.

`CC(C)Oc1cc(-n2ccc(NC(=O)C3(c4ccccc4F)CC3)n2)ccn1` [Compound 342, 1-(2-fluorophenyl)-N-[1-(2-isopropoxy-4-pyridyl)pyrazol-3-yl]cyclopropanecarboxamide]: the IC50 was greater than 5000 nM.

Regarding `Cc1nccc(-n2ccc(NC(=O)C3(c4ccccc4F)CC3)n2)c1C` [Compound 343, N-[1-(2,3-dimethyl-4-pyridyl)pyrazol-3-yl]-1-(2-fluorophenyl)cyclopropanecarboxamide], the IC50 was greater than 5000 nM.

`Cc1ncc(C#N)c(-n2ccc(NC(=O)C3(c4ccccc4F)CC3)n2)n1` [Compound 344, N-[1-(5-cyano-2-methyl-pyrimidin-4-yl)pyrazol-3-yl]-1-(2-fluorophenyl)cyclopropanecarboxamide]: the IC50 is greater than 5000 nM.

Regarding `COc1cncc(F)c1-n1ccc(NC(=O)C2(c3ccccc3F)CC2)n1` [Compound 345, N-[1-(3-fluoro-5-methoxy-4-pyridyl)pyrazol-3-yl]-1-(2-fluorophenyl)cyclopropanecarboxamide], the IC50 is greater than 2000 nM.

For `Cc1cc(-n2ccc(NC(=O)C3(c4ccccc4F)CC3)n2)cc(C#N)n1` [Compound 346, N-[1-(2-cyano-6-methyl-4-pyridyl)pyrazol-3-yl]-1-(2-fluorophenyl)cyclopropanecarboxamide], the 50% inhibitory concentration (IC50) was greater than 5000 nM.

Regarding `COc1cncc(OC)c1-n1ccc(NC(=O)C2(c3ccccc3F)CC2)n1` [Compound 347, N-[1-(3,5-dimethoxy-4-pyridyl)pyrazol-3-yl]-1-(2-fluorophenyl)cyclopropanecarboxamide], the concentration for half-maximal inhibition (IC50) is greater than 5000 nM.

On to `COc1ncc(-n2ccc(NC(=O)C3(c4ccccc4F)CC3)n2)cc1F` [Compound 348, N-[1-(5-fluoro-6-methoxy-3-pyridyl)pyrazol-3-yl]-1-(2-fluorophenyl)cyclopropanecarboxamide], for which the IC50 was found to be 33 nM.

Regarding `Cc1ncc(-n2ccc(NC(=O)C3(c4ccccc4F)CC3)n2)cc1F` [Compound 349, N-[1-(5-fluoro-6-methyl-3-pyridyl)pyrazol-3-yl]-1-(2-fluorophenyl)cyclopropanecarboxamide], the IC50 amounted to 440 nM.

For the molecule `Cc1cc(-n2ccc(NC(=O)C3(c4ccccc4F)CC3)n2)c(C)cn1` [Compound 350, N-[1-(2,5-dimethyl-4-pyridyl)pyrazol-3-yl]-1-(2-fluorophenyl)cyclopropanecarboxamide], the half-inhibitory concentration (IC50) is greater than 5000 nM.

As to `Cc1c(-n2ccc(NC(=O)C3(c4ccccc4F)CC3)n2)ccnc1F` [Compound 351, N-[1-(2-fluoro-3-methyl-4-pyridyl)pyrazol-3-yl]-1-(2-fluorophenyl)cyclopropanecarboxamide], the half-inhibitory concentration (IC50) came out at 420 nM.

For `N#Cc1cc(F)cc(-n2ccc(NC(=O)C3(c4ccccc4F)CC3)n2)c1` [Compound 352, N-[1-(3-cyano-5-fluoro-phenyl)pyrazol-3-yl]-1-(2-fluorophenyl)cyclopropanecarboxamide], the IC50 is greater than 5000 nM.

Regarding `COc1ncncc1-n1ccc(NC(=O)C2(c3ccccc3F)CC2)n1` [Compound 353, 1-(2-fluorophenyl)-N-[1-(4-methoxypyrimidin-5-yl)pyrazol-3-yl]cyclopropanecarboxamide], the 50% inhibitory concentration (IC50) is 2200 nM.

As to `CC(C)(O)c1ncc(-n2ccc(NC(=O)C3(c4ccccc4F)CC3)n2)cc1F` [Compound 354, N-[1-[5-fluoro-6-(1-hydroxy-1-methyl-ethyl)-3-pyridyl]pyrazol-3-yl]-1-(2-fluorophenyl)cyclopropanecarboxamide], the IC50 is greater than 5000 nM.

As for `O=C(Nc1ccn(-c2ccc(O)c(F)c2)n1)C1(c2ccccc2F)CC1` [Compound 355, N-[1-(3-fluoro-4-hydroxy-phenyl)pyrazol-3-yl]-1-(2-fluorophenyl)cyclopropanecarboxamide], the half-inhibitory concentration (IC50) turned out to be 1700 nM.

With `O=C(Nc1ccn(-c2cnnc(O)c2)n1)C1(c2ccccc2F)CC1` [Compound 356, 1-(2-fluorophenyl)-N-[1-(6-hydroxypyridazin-4-yl)pyrazol-3-yl]cyclopropanecarboxamide], the IC50 is greater than 5000 nM.

On to `O=C(Nc1ccn(-c2cc(F)c(O)c(F)c2)n1)C1(c2ccccc2F)CC1` [Compound 357, N-[1-(3,5-difluoro-4-hydroxy-phenyl)pyrazol-3-yl]-1-(2-fluorophenyl)cyclopropanecarboxamide], for which the concentration for half-maximal inhibition (IC50) is greater than 5000 nM.

In the case of `COc1cc(-n2ccc(NC(=O)C3(c4ccccc4F)CC3)n2)ncn1` [Compound 358, 1-(2-fluorophenyl)-N-(1-(6-methoxypyrimidin-4-yl)-1H-pyrazol-3-yl)cyclopropane-1-carboxamide], the IC50 is greater than 5000 nM.

With `COc1cc(-n2ccc(NC(=O)C3(c4ccccc4F)CC3)n2)nc(C)n1` [Compound 359, 1-(2-fluorophenyl)-N-[1-(6-methoxy-2-methyl-pyrimidin-4-yl)pyrazol-3-yl]cyclopropanecarboxamide], the IC50 is greater than 5000 nM.

`Cc1cncnc1-n1ccc(NC(=O)C2(c3ccccc3F)CC2)n1` [Compound 360, 1-(2-fluorophenyl)-N-[1-(5-methylpyrimidin-4-yl)pyrazol-3-yl]cyclopropanecarboxamide]: the IC50 was found to be 69 nM.

For the molecule `O=C(Nc1ccn(-c2ncncc2F)n1)C1(c2ccccc2F)CC1` [Compound 361, 1-(2-fluorophenyl)-N-[1-(5-fluoropyrimidin-4-yl)pyrazol-3-yl]cyclopropanecarboxamide], the IC50 stood at 150 nM.

Turning to `CN(C(=O)Cc1ccccc1F)c1ccn(-c2ccccc2)n1` [Compound 362, 2-(2-fluorophenyl)-N-methyl-N-(1-phenyl-1H-pyrazol-3-yl)acetamide], the concentration for half-maximal inhibition (IC50) is greater than 5000 nM.

Turning to `CN(C(=O)C1(c2ccccc2F)CC1)c1ccn(-c2ccnc(F)c2)n1` [Compound 363, 1-(2-fluorophenyl)-N-(1-(2-fluoropyridin-4-yl)-1H-pyrazol-3-yl)-N-methylcyclopropane-1-carboxamide], the IC50 was greater than 5000 nM.

As to `O=C(Nc1nn(-c2ccnc(F)c2)cc1F)C1(c2ccccc2F)CC1` [Compound 365, N-(4-fluoro-1-(2-fluoropyridin-4-yl)-1H-pyrazol-3-yl)-1-(2-fluorophenyl)cyclopropane-1-carboxamide], the concentration for half-maximal inhibition (IC50) stood at 410 nM.

As to `Cc1cn(-c2ccccc2)nc1NC(=O)C1(c2cccc(F)c2)CCC1` [Compound 372, 1-(3-fluorophenyl)-N-(4-methyl-1-phenyl-pyrazol-3-yl)cyclobutanecarboxamide], the IC50 was 3700 nM.

For `Cc1ccccc1C1(C(=O)Nc2ccn(-c3ccncc3)n2)CC1` [Compound 373, 1-(o-tolyl)-N-[1-(4-pyridyl)pyrazol-3-yl]cyclopropanecarboxamide], the 50% inhibitory concentration (IC50) is 140 nM.
